Reference: ChEMBL document CHEMBL1201862, “PubChem BioAssay data set” (2004)
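Interpolation was linear, between the two tested concentrations surrounding the appropriate level; five concentrations were tested over 48 hours in 96-well plates. GI50: concentration for 50% inhibition of growth.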 Activity calls are given as the source filed them. No stated cut-off is given here; in the data, active = GI50 up to about 1.1 µM and inactive = higher.

Key:
Test in all cases: NCI-60 cell line screen, 48 h
SK-OV-3 = test system: SK-OV-3
HCC 2998 = test system: HCC 2998
SF-268 = test system: SF-268
OVCAR-5 = test system: OVCAR-5
HCT-15 = test system: HCT-15
NCI-H522 = test system: NCI-H522
SK-MEL-5 = test system: SK-MEL-5
NCI-H226 = test system: NCI-H226
CCRF-CEM = test system: CCRF-CEM
UACC-257 = test system: UACC-257
TK-10 = test system: TK-10
KM12 = test system: KM12
IGROV-1 = test system: IGROV-1
M14 = test system: M14
CAKI-1 = test system: CAKI-1
HOP-92 = test system: HOP-92
MDA-N = test system: MDA-N
MOLT-4 = test system: MOLT-4
RPMI-8226 = test system: RPMI-8226

Measured: GI50

NC(=O)N/N=C(\Cc1cc(=O)oc2cc(O)ccc12)C(=O)Nc1ccccc1C(N)=O
inactive: SK-OV-3 > 100 µM | HCC 2998 61 µM | SF-268 > 100 µM | OVCAR-5 > 100 µM | NCI-H522 > 100 µM | SK-MEL-5 > 100 µM | NCI-H226 > 100 µM | CCRF-CEM > 100 µM | UACC-257 > 100 µM | TK-10 > 100 µM | KM12 > 100 µM | IGROV-1 > 100 µM | M14 > 100 µM | CAKI-1 > 100 µM | HOP-92 > 100 µM | MDA-N > 100 µM | MOLT-4 > 100 µM
> 100 µM: HCT-15

COc1ccc(C[C@@H](CO)NC2=C(C#N)CCC2)cc1
inactive: SK-OV-3 49.1 µM | HCC 2998 19.6 µM | SF-268 58.9 µM | OVCAR-5 71.6 µM | SK-MEL-5 34.9 µM | NCI-H226 48.3 µM | CCRF-CEM 42.6 µM | RPMI-8226 18.1 µM | UACC-257 34.6 µM | TK-10 63.8 µM | KM12 19.5 µM | M14 41.4 µM | CAKI-1 43 µM | HOP-92 43.5 µM | MDA-N 28.6 µM | MOLT-4 38.7 µM
40.4 µM: HCT-15

O=c1oc2ccccc2n1CCN1CCCCC1
> 100 µM: HCT-15
inactive: SK-OV-3 > 100 µM | SF-268 > 100 µM | OVCAR-5 > 100 µM | SK-MEL-5 > 100 µM | NCI-H226 > 100 µM | CCRF-CEM > 100 µM | RPMI-8226 > 100 µM | UACC-257 > 100 µM | TK-10 > 100 µM | KM12 > 100 µM | IGROV-1 > 100 µM | M14 > 100 µM | CAKI-1 > 100 µM | MDA-N > 100 µM | MOLT-4 > 100 µM

ClCCN1CCC2(CC1)SSC1(CCN(CCCl)CC1)S2
36.2 µM: HCT-15
inactive: SK-OV-3 30.6 µM | SF-268 10.8 µM | OVCAR-5 29.6 µM | SK-MEL-5 42.4 µM | CCRF-CEM 15 µM | RPMI-8226 21.4 µM | UACC-257 > 100 µM | TK-10 35.9 µM | KM12 > 100 µM | IGROV-1 74 µM | M14 61.4 µM | CAKI-1 11.9 µM | HOP-92 1.79 µM | MDA-N > 100 µM | MOLT-4 41.5 µM

COc1ccc(-n2c(=O)[nH]n(C(C)=O)c2=O)cc1
inactive: SF-268 > 100 µM | OVCAR-5 > 100 µM | NCI-H522 > 100 µM | SK-MEL-5 > 100 µM | NCI-H226 > 100 µM | CCRF-CEM > 100 µM | RPMI-8226 > 100 µM | UACC-257 > 100 µM | TK-10 > 100 µM | KM12 > 100 µM | IGROV-1 > 100 µM | M14 > 100 µM | CAKI-1 > 100 µM | HOP-92 > 100 µM | MDA-N > 100 µM | MOLT-4 > 100 µM
> 100 µM: HCT-15

Cc1cc(/N=N/c2ccccc2C)ccc1N
12.1 µM: HCT-15
inactive: SK-OV-3 24.8 µM | HCC 2998 12.4 µM | OVCAR-5 17.9 µM | SK-MEL-5 15.8 µM | NCI-H226 13.9 µM | CCRF-CEM 1.42 µM | UACC-257 17.9 µM | TK-10 19.6 µM | KM12 10.6 µM | IGROV-1 14.6 µM | M14 12.4 µM | CAKI-1 15.3 µM | HOP-92 10.5 µM | MDA-N 18.5 µM | MOLT-4 2.65 µM

C[C@H](N)C(=O)Nc1ccc(-c2nc3ccccc3s2)cc1Cl
19.6 µM: HCT-15
inactive: SK-OV-3 16.4 µM | SF-268 17.9 µM | NCI-H522 20.5 µM | SK-MEL-5 16.1 µM | CCRF-CEM 12 µM | UACC-257 18.6 µM | KM12 15 µM | M14 5.78 µM | CAKI-1 10.7 µM | HOP-92 33.1 µM | MDA-N 13.2 µM | MOLT-4 17.7 µM
active: HCC 2998 0.56 µM | OVCAR-5 0.27 µM | NCI-H226 0.0745 µM | TK-10 0.161 µM | IGROV-1 0.165 µM
